# Data reported in patent publication US20090029943A1, “Glucosamine and Derivatives Thereof Useful as TG Inhibitors” (priority 2005, published 2009).
# Entries after “also recorded” stand apart in the source; their conditions may differ.
# What was measured:
# [1] = tested on: iNOS (NF-kB-inducible) in LPS-activated BV2 microglia; test: iNOS Western blotting in LPS-activated BV2 microglia cells; type: cell-based, murine; conditions: LPS 100 ng/ml 24 hrs; glucosamine 1, 10 or 100 mM; FIG. 3A
# Description: The inhibitory effects of glucosamine on transglutaminase were determined by monitoring the activity of the transcriptional factor NF-kB through the measurement of level of NF-kB-inducible iNOS.
# The cells were maintained in DMEM (Dulbecco's Modified Eagle's medium) (Invitrogen) supplemented with 10% fetal bovine serum and penicillin/streptomycin in a 5% CO2, 37° C. incubator. BV-2 was activated by treatment with LPS (100 ng/ml; Sigma) for 24 hrs.
# In order to detect the intracellular activity of transglutaminase, the cells were incubated for 24 hrs in a medium supplemented with 4.5 nmoles of ^14C-putrescine (1.11×10^6 dpm)/ml. Cells were grouped according to treatment without or with 1, 10 or 100 mM of glucosamine. Following LPS treatment for 24 hrs, cells in each group were homogenized with a radioimmunoprecipitation assay buffer (1×PBS, 1% Nonidet P-40, 0.5% sodium deoxycholate and 0.1% SDS) containing a protease inhibitor. The homogenates were centrifuged at 100,000×g for 1 hr. and the supernatants were subjected to iNOS Western blotting.
# After being separated from a 10˜20% gradient SDS gel using Tricine buffer (Invitrogen), the Western blotting samples were transferred onto polyvinylidene difluoride membrane (Invitrogen). Western blotting was conducted as usual. […]
# [2] = tested on: transglutaminase in SH-SY5Y/TG cells (I-κBα level); test: I-κBα Western blotting in SH-SY5Y/TG neuroblastoma cells; type: cell-based, human; conditions: 10 mM glucosamine, 3 hrs, cytosol fraction; FIG. 4A
# Description: For use in the transfection of transglutaminase, the human neuroblastoma cell SH-SY5Y was purchased from American Type Culture Collection. SH-SY5Y was cultured in DMEM (Dulbecco's modified Eagle's Medium)/Ham F12 medium (50:50) supplemented with 10% heat-inactivated fetal bovine serum, glutamine, and penicillin/streptomycin. In order to avoid clonal mutation, an Flp-In™ system (Invitrogen, Co) was introduced. SH-SY5Y transformed with a mock vector was used as a […] (Wild) while a full-length transglutaminase gene was cloned in a pcDNA5/FRT vector to prepare SH-SY5Y/TG. Allowing NF-kB to be usually active therein (J. Biol. Chem. 279, 53725-53735, 2004), the strain thus constructed is widely used as an NF-kB activation model based on the overexpression of transglutaminase. […] The inhibitory effects of putative transglutaminase inhibitors were investigated by incubating SH-SY5Y/TG cells in the presence of 10 mM glucosamine (GM), 200 μM cystamine (CTM), and 2 nM iodoacetamide (IAA) for 3 hrs, followed by obtaining cytosol fractions with the aid of a nuclear extraction kit (Sigma) from the cells. As a negative control, a cytosol fraction obtained from a cell culture incubated in the absence of any transglutaminase inhibitor was used (Ct). […]
# [3] = target: T1, purified transglutaminase enzyme (Sigma T5398) (UniProt P08587); test: In vitro assay for inhibition of transglutaminase activity (14C-putrescine incorporation into succinylated casein); type: biochemical; conditions: glucosamine 1, or 100 mM; 37° C., 1 hour; FIG. 2
# T1 construct: purchased Sigma T5398
# T1 sequence (P08587 1-690): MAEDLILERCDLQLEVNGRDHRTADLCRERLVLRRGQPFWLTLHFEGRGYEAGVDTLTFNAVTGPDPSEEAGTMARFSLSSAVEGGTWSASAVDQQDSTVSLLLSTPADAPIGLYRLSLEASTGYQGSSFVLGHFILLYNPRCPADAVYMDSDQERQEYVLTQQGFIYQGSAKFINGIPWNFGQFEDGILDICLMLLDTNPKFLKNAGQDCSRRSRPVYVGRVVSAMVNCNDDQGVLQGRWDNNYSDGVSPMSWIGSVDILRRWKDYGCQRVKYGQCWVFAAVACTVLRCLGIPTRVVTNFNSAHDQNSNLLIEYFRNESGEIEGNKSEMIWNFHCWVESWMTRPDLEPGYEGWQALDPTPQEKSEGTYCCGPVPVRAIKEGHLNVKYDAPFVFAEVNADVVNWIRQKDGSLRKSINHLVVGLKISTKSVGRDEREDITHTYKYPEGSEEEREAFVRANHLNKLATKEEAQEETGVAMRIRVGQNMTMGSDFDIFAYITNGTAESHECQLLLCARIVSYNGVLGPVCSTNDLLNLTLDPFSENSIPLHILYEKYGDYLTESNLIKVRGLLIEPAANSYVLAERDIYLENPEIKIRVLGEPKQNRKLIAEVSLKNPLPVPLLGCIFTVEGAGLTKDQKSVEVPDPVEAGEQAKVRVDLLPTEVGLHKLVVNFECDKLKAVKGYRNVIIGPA
# Description: Consequently, glucosamine and derivatives thereof are transglutaminase inhibitors.
# In the presence of various concentrations of […], which competes with putrescine, the reaction between [1,4-^14C] putrescine and succinylated casein, catalyzed by transglutaminase, was observed.
# A reaction buffer (0.5 ml) was prepared as follows: 0.1 M triacetate pH 7.5, 1% succinylated casein, 1 mM EDTA, 10 mM CaCl2, 0.5% lubrol PX, 5 mM DTT, 0.15 M NaCl and 0.5 mCi [1,4-^14C] putrescine (Dupont-New England Nuclear; 118 Ci/mole). To this reaction buffer were added 2 μl of a purified transglutaminase enzyme (Sigma T5398), glucosamine and a 50 mM Tris-acetate buffer so as to yield a final volume of 100 μl, having a glucosamine concentration of 1, or 100 mM. Mixing was followed by reaction at 37° C. for 1 hour before termination with 4.5 ml of cold (4° C.) 7.5% TCA. The TCA-precipitates thus formed were filtered through a GF/glass fiber filter, washed with 10 volumes of 5% TCA and dried, followed by measuring transglutaminase-catalyzed ^14C-putrescine-labelled casein with a β-counter.
# The relative inhibition activities (%) of glucosamine against transglutaminase are depicted in FIG. 2.
# [4] = target: T2, transglutaminase in LPS-activated microglia cells (Mus musculus, UniProt P21981); test: Intracellular transglutaminase activity in LPS-activated BV2 microglia (14C-putrescine incorporation); type: cell-based, murine; conditions: LPS 24 hrs; glucosamine 1, 10 or 100 mM; FIG. 3B
# T2 construct: In order to detect the intracellular activity of transglutaminase, the cells were incubated for 24 hrs; endogenous in cells
# T2 sequence (P21981 1-686): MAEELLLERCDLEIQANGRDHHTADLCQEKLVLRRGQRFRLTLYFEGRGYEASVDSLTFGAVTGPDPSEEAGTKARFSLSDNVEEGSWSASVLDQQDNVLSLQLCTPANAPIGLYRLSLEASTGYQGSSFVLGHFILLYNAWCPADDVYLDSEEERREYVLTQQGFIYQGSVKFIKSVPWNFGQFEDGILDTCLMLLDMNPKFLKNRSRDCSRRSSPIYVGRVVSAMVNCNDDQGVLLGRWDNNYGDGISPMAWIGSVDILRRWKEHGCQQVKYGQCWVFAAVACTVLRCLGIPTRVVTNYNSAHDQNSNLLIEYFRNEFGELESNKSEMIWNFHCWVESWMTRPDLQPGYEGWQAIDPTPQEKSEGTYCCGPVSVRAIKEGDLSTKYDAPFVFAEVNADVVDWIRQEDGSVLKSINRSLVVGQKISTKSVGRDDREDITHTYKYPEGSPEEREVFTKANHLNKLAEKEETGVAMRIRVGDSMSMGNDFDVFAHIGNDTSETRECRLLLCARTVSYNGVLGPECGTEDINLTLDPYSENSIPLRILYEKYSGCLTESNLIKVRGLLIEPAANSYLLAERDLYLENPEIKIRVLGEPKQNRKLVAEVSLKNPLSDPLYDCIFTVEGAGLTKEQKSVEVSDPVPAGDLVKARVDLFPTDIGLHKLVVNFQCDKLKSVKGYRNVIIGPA
compound,measurement,setting,value
N[C@H]1C(O)O[C@H](CO)[C@@H](O)[C@@H]1O (stereo partly shown) [glucosamine],level of expression of iNOS,[1],reduces the level of expression of iNOS
same,transglutaminase inhibition shown by level of expression of I-κBα,[2],identified as a transglutaminase inhibitor
same,activity of transglutaminase (relative inhibition activity),[3],poorer activity of transglutaminase; also recorded: inhibited in a glucosamine dose-dependent manner
same,activity of transglutaminase in LPS-activated microglia,[4],inhibited in a glucosamine dose-dependent manner
